The values that follow come from patent US20050075375A1 (priority 2003, published 2005).

For the test, the system named is monocistronic NK5.1 HCV replicon in Huh7 cells. The test is described as follows: HCV replicon assay, monocistronic replicon cell line. The test is classed as cell-based, hepatitis C virus. As to conditions: Hepatitis C virus, read-out: Mono EC50 Median. The gist of the method: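 EC50 derives from the HCV RNA/GAPDH RNA ratio by one-step TaqMan RT-PCR, relative to DMSO-only wells. Compounds (six half-log concentrations, 0.6% DMSO) were incubated 3 days at 37 °C with NK5.1 monocistronic replicon Huh7 cells plated a day earlier.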

Setting [1] is: Huh-7, monocistronic NK5.1 HCV replicon in Huh7 cells, median value.
[2] abbreviates: Huh-7, 72 h, table T3 (compounds 471-640), monocistronic replicon in Huh7 cells, 3 days incubation, HCV RNA/GAPDH RNA by TaqMan RT-PCR.

Molecules are shown by their SMILES. Where two headings read alike, the source gives them in different places. Bounds are passed on as bounds.

As for `COc1cccc(-c2nc(-c3ncccc3C)n[nH]2)c1O` [Compound 453, 6-Methoxy-2-(5-(3-methyl-pyridin-2-yl)-2H-[1,2,4]triazol-3-yl)-phenol], under setting [1], the EC50 (usually the midpoint of the concentration-response curve) came out at 21 µM.
On the same count and under the same terms, the value for `Cc1cccnc1-c1n[nH]c(-c2cccc([N+](=O)[O-])c2)n1` [Compound 454, 3-Methyl-2-[5-(3-nitro-phenyl)-1H-[1,2,4]triazol-3-yl]-pyridine] was 24 µM; that for `CCN(CC)c1ccc(-c2n[nH]c(-c3ncccc3C)n2)c(O)c1` [Compound 455, 5-Diethylamino-2-[5-(3-methyl-pyridin-2-yl)-2H-[1,2,4]triazol-3-yl]-phenol] was 8.1 µM.
With `Cc1cccnc1-c1n[nH]c(-c2cc3c4c(c2O)C(C)(C)CCN4CCC3(C)C)n1` [Compound 456, 1,1,7,7-Tetramethyl-9-[5-(3-methyl-pyridin-2-yl)-2H-[1,2,4]triazol-3-yl]-2,3,6,7-tetrahydro-1H,5H-pyrido[3,2,1-ij]quinolin-8-ol], the EC50 under setting [1] came to 0.73 µM.
Still for that read-out and setting: the value for `Cc1cccnc1-c1n[nH]c(-c2cc(O)ccc2O)n1` [Compound 457, 4-Hydroxy-2-[5-(3-methyl-pyridin-2-yl)-2H-[1,2,4]triazol-3-yl]-phenol] was 4.1 µM; that for `COc1cccc(-c2nc(-c3ncccc3C)n[nH]2)c1` [Compound 458, 2-[5-(3-Methoxy-phenyl)-1H-[1,2,4]triazol-3-yl]-3-methyl-pyridine] was greater than 32 µM.
For `COc1ccc(F)c(-c2nc(-c3ncccc3C)n[nH]2)c1` [Compound 459, 2-[5-(2-Fluoro-5-methoxy-phenyl)-1H-[1,2,4]triazol-3-yl]-3-methyl-pyridine], the EC50 under setting [1] is greater than 32 µM.
For the compound `Cc1cccnc1-c1n[nH]c(-c2ccc(C(C)C)cc2)n1` [Compound 460, 2-[5-(4-Isopropyl-phenyl)-1H-[1,2,4]triazol-3-yl]-3-methyl-pyridine], under setting [1], the EC50 was 3 µM.
`Cc1cccnc1-c1n[nH]c(-c2c(O)ccc3ccccc23)n1` [Compound 461, 1-(5-(3-methyl-pyridin-2-yl)-2H-[1,2,4]triazol-3-yl)-naphthalen-2-ol]: the concentration for a half-maximal effect (EC50) under setting [1] was 6.9 µM.
For `Cc1cccc(-c2n[nH]c(-c3ccccc3Br)n2)n1` [Compound 462, 2-[5-(2-Bromo-phenyl)-1H-[1,2,4]triazol-3-yl]-6-mehtyl-pyridine], the EC50 under setting [1] is greater than 32 µM.
On to `Cc1cccc(-c2n[nH]c(-c3cccc(Br)c3)n2)n1` [Compound 463, 2-[5-(3-Bromo-phenyl)-1H-[1,2,4]triazol-3-yl]-6-methyl-pyridine], for which the EC50 under setting [1] came out at 19 µM.
Still for that read-out and setting: for `Cc1cccc(-c2n[nH]c(-c3ccc(Br)cc3)n2)n1` [Compound 464, 2-[5-(4-Bromo-phenyl)-1H-[1,2,4]triazol-3-yl]-6-methyl-pyridine] the value was greater than 32 µM.
As to `Cc1cccc(-c2n[nH]c(-c3ccccc3F)n2)n1` [Compound 465, 2-[5-(2-Fluoro-phenyl)-1H-[1,2,4]triazol-3-yl]-6-methyl-pyridine], the EC50 under setting [1] was greater than 32 µM.
Consider `Cc1cccc(-c2n[nH]c(-c3ccccc3Cl)n2)n1` [Compound 466, 2-[5-(2-Chloro-phenyl)-1H-[1,2,4]triazol-3-yl]-6-methyl-pyridine], for which the EC50 under setting [1] was greater than 32 µM.
As to `Cc1cccc(-c2n[nH]c(-c3c(Cl)cccc3Cl)n2)n1` [Compound 467, 2-[5-(2,6-Dichloro-phenyl)-1H-[1,2,4]triazol-3-yl]-6-methyl-pyridine], the half-maximal effective concentration (EC50) under setting [1] is greater than 32 µM.
Take `Cc1cccc(-c2n[nH]c(-c3c(F)cccc3F)n2)n1` [Compound 468, 2-[5-(2,6-Difluoro-phenyl)-1H-[1,2,4]triazol-3-yl]-6-methyl-pyridine]: under setting [1], the EC50 is greater than 32 µM.
In the case of `Cc1cccc(-c2n[nH]c(-c3c(F)cccc3Cl)n2)n1` [Compound 469, 2-[5-(2-Fluoro-6-chloro-phenyl)-1H-[1,2,4]triazol-3-yl]-6-methyl-pyridine], the EC50 under setting [1] is greater than 32 µM.
Take `Fc1ccccc1-c1nc(-c2nccc3ccccc23)n[nH]1` [Compound 470]: the EC50 under setting [1] was 7.2 µM.
Turning to `Clc1ccccc1-c1nc(-c2nccc3ccccc23)n[nH]1` [Compound 471], the EC50 under setting [2] was 6.1 µM.
Consider `Clc1ccccc1-c1nc(-c2ccccn2)n[nH]1` [Compound 472, 2-[5-(2-Chloro-phenyl)-1H-[l,2,4]triazol-3-yl]-pyridine], for which the EC50 under setting [2] was greater than 32 µM.
`FC(F)(F)c1ccncc1-c1n[nH]c(-c2ccccc2Br)n1` [Compound 473, 3-[5-(2-Bromo-phenyl)-1H-[1,2,4]triazol-3-yl]-4-trifluoromethyl-pyridine]: the EC50 under setting [2] was greater than 32 µM.
Same read-out and setting: the value for `FC(F)(F)c1ccncc1-c1n[nH]c(-c2cccc(Br)c2)n1` [Compound 474, 3-[5-(3-Bromo-phenyl)-1H-[1,2,4]triazol-3-yl]-4-trifluoromethyl-pyridine] was greater than 32 µM; that for `Fc1ccccc1-c1nc(-c2cnccc2C(F)(F)F)n[nH]1` [Compound 475, 3-[5-(2-Fluoro-phenyl)-1H-[1,2,4]triazol-3-yl]-4-trifluoromethyl-pyridine] was greater than 32 µM; that for `FC(F)(F)c1ccncc1-c1n[nH]c(-c2ccccc2Cl)n1` [Compound 476, 3-[5-(2-Chloro-phenyl)-1H-[1,2,4]triazol-3-yl]-4-trifluoromethyl-pyridine] was greater than 32 µM.
On to `FC(F)(F)c1ccncc1-c1n[nH]c(-c2c(Cl)cccc2Cl)n1` [Compound 477, 3-[5-(2,6-Dichloro-phenyl)-1H-[1,2,4]triazol-3-yl]-4-trifluoromethyl-pyridine], for which, under setting [2], the EC50 was greater than 32 µM.
Turning to `Fc1cccc(F)c1-c1nc(-c2cnccc2C(F)(F)F)n[nH]1` [Compound 478, 3-[5-(2,6-Difluoro-phenyl)-1H-[1,2,4]triazol-3-yl]-4-trifluoromethyl-pyridine], under setting [2], the EC50 is greater than 32 µM.
Still for that read-out and setting: the value for `Fc1cccc(Cl)c1-c1nc(-c2cnccc2C(F)(F)F)n[nH]1` [Compound 479, 3-[5-(2-Fluoro-6-chloro-phenyl)-1H-[1,2,4]triazol-3-yl]-4-trifluoromethyl-pyridine] was greater than 32 µM; that for `O=[N+]([O-])c1cccc(-c2nc(-c3cnccc3C(F)(F)F)n[nH]2)c1` [Compound 480, 3-[5-(3-Nitro-phenyl)-1H-[1,2,4]triazol-3-yl]-4-trifluoromethyl-pyridine] was greater than 32 µM; that for `COc1ccc(F)c(-c2nc(-c3cnccc3C(F)(F)F)n[nH]2)c1` [Compound 481, 3-[5-(2-Fluoro-5-methoxy-phenyl)-1H-[1,2,4]triazol-3-yl]-4-trifluoromethyl-pyridine] was greater than 32 µM.
For `Oc1ccc2ccccc2c1-c1nc(-c2ccccn2)n[nH]1` [Compound 482, 1-(5-Pyridin-2-yl-2H-[1,2,4]triazol-3-yl)-naphthalen-2-ol], the EC50 under setting [2] is greater than 19 µM.
On the same count and under the same terms, for `Brc1cccnc1-c1n[nH]c(-c2cccc3ccccc23)n1` [Compound 483, 3-Bromo-2-(5-naphthalen-1-yl-1H-[1,2,4]triazol-3-yl)-pyridine] the value was greater than 32 µM.
For the compound `CC(C)(C)c1ccc(O)c(-c2nc(-c3ncccc3Br)n[nH]2)c1` [Compound 484, 2-[5-(3-Bromo-pyridin-2-yl)-2H-[1,2,4]triazol-3-yl]-4-tert-butyl-phenol], under setting [2], the 50% effective concentration (EC50) came to 7.2 µM.
Consider `O=[N+]([O-])c1ccc(O)c(-c2nc(-c3ncccc3Br)n[nH]2)c1` [Compound 485, 2-[5-(3-Bromo-pyridin-2-yl)-2H-[1,2,4]triazol-3-yl]-4-Nitro-phenol], for which, under setting [2], the EC50 is greater than 19 µM.
Turning to `Oc1ccc(F)cc1-c1nc(-c2ncccc2Br)n[nH]1` [Compound 486, 2-[5-(3-Bromo-pyridin-2-yl)-2H-[1,2,4]triazol-3-yl]-4-Fluoro-phenol], the EC50 under setting [2] was 7.4 µM.
As to `COc1ccc(O)c(-c2nc(-c3ncccc3Br)n[nH]2)c1` [Compound 487, 2-[5-(3-Bromo-pyridin-2-yl)-2H-[1,2,4]triazol-3-yl]-4-Methoxy-phenol], the EC50 under setting [2] is greater than 32 µM.
`Oc1ccc(Cl)cc1-c1nc(-c2ncccc2Br)n[nH]1` [Compound 488, 2-[5-(3-Bromo-pyridin-2-yl)-2H-[1,2,4]triazol-3-yl]-4-Chloro-phenol]: the EC50 under setting [2] turned out to be 2.7 µM.
With `CCOc1cccc(-c2nc(-c3ncccc3Br)n[nH]2)c1O` [Compound 489, 2-[5-(3-Bromo-pyridin-2-yl)-2H-[1,2,4]triazol-3-yl]-6-Ethoxy-phenol], the EC50 under setting [2] is 22 µM.
Regarding `Oc1cc(OCc2ccccc2)ccc1-c1nc(-c2ncccc2Br)n[nH]1` [Compound 490, 2-[5-(3-Bromo-pyridin-2-yl)-2H-[1,2,4]triazol-3-yl]-5-Benzyloxy-phenol], the EC50 under setting [2] is 7 µM.
Take `Fc1cc(-c2nc(-c3ncccc3Br)n[nH]2)ccc1-c1ccccc1` [Compound 491, 3-Bromo-2-[5-(2-Fluoro-biphenyl-4-yl)-1H-[1,2,4]triazol-3-yl]-pyridine]: under setting [2], the EC50 was determined as 2.3 µM.
In the case of `Oc1ccc(Br)cc1-c1nc(-c2ncccc2Br)n[nH]1` [Compound 492, 2-[5-(3-Bromo-pyridin-2-yl)-2H-[1,2,4]triazol-3-yl]-4-Bromo-phenol], the EC50 under setting [2] is 5.4 µM.
In the case of `Cc1ccc(O)c(-c2nc(-c3ncccc3Br)n[nH]2)c1` [Compound 493, 2-[5-(3-Bromo-pyridin-2-yl)-2H-[1,2,4]triazol-3-yl]-4-Methyl-phenol], the EC50 under setting [2] is 16 µM.
With `COc1ccc(-c2nc(-c3ncccc3Br)n[nH]2)c(O)c1` [Compound 494, 2-[5-(3-Bromo-pyridin-2-yl)-2H-[1,2,4]triazol-3-yl]-5-Methoxy-phenol], the EC50 under setting [2] was greater than 32 µM.
With `Oc1ccccc1-c1nc(-c2ncccc2Br)n[nH]1` [Compound 495, 2-[5-(3-Bromo-pyridin-2-yl)-2H-[1,2,4]triazol-3-yl]-phenol], the EC50 under setting [2] was determined as 15 µM.
Consider `COc1cccc(-c2nc(-c3ncccc3Br)n[nH]2)c1O` [Compound 496, 2-[5-(3-Bromo-pyridin-2-yl)-2H-[1,2,4]triazol-3-yl]-6-Methoxy-phenol], for which the EC50 under setting [2] was greater than 32 µM.
